Usually IC50 stands for the point on the concentration scale where inhibition reaches its midpoint.

Where two headings read alike, the source gives them in different places.

The target in one experiment is Endothelial lipase (EL) (Homo sapiens (Human), UniProt Q9Y5X9). In words: EL assay: endothelial lipase activity with fluorescent substrate A10070 in DMPG vesicles. It is filed as biochemical. In outline:
(§1)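 Compounds were preincubated with enzyme for 30 min at 37° C before FRET-substrate vesicles (A10070 in DMPG, 0.11 mole fraction) were added. Reaction rates were obtained from the 300–900 sec slope of fluorescence at 490/530 nm.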

The next experiment addresses hepatic lipase (HL) (Homo sapiens (Human), UniProt P11150). Kind of experiment: HL assay: hepatic lipase activity with fluorescent substrate A10070 in DMPG vesicles. It counts as biochemical. In outline:
as §1

Where [1] appears, read: EL from conditioned media of HT-1080 cells, 30 min incubation with compound at 37° C., A10070/DMPG vesicles.
Setting [2] is: HL partially purified from conditioned media of COS cells, 30 min incubation with compound at 37° C., A10070/DMPG vesicles.

Endothelial lipase (EL), sequence (Q9Y5X9 21-500): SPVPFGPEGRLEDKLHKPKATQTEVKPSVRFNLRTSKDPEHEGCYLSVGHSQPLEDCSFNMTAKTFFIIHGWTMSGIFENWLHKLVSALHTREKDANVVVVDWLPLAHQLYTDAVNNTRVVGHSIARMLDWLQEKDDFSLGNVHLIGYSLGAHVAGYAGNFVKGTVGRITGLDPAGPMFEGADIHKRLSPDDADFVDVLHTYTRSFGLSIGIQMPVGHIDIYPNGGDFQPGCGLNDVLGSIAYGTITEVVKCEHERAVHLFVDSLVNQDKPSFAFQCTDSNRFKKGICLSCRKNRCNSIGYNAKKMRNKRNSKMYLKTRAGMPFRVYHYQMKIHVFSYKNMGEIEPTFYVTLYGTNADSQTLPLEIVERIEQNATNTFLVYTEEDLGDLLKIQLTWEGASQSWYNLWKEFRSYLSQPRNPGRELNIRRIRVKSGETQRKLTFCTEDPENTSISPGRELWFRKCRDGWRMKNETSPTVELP
hepatic lipase (HL), sequence (P11150 23-499, species assumed): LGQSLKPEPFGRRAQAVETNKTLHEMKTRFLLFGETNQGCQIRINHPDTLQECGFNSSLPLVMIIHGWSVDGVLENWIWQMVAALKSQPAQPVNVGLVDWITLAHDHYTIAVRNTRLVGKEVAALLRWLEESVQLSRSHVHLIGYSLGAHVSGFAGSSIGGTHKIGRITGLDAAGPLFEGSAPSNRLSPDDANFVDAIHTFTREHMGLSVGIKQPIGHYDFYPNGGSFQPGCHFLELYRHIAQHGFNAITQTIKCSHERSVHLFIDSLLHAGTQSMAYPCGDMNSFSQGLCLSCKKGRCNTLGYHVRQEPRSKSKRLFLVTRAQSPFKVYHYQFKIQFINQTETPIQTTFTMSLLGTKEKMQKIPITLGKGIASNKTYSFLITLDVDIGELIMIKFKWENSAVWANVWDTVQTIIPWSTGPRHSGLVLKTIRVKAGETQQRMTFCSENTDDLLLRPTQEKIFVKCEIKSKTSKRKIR

As for `CC(C)(C)OC(=O)N1CC=C(c2ccc3sc(C(C(=O)NCCS(N)(=O)=O)S(C)(=O)=O)nc3c2)CC1` (centres unmarked) [Example B382, tert-butyl 4-(2-{methanesulfonyl[(2-sulfa-moylethyl)carbamoyl]meth-yl}-1,3-benzothiazol-5-yl)-1,2,3,6-tetrahydropyridine-1-carboxylate], the IC50 on Endothelial lipase (EL) stood at 3.1 nM; on hepatic lipase (HL), 36.5 nM.
On the same counts, the results for `CS(=O)(=O)C(C(=O)NCCS(N)(=O)=O)c1nc2cc(-c3cccnc3F)ccc2s1` (centres unmarked) [Example B383, 2-[5-(2-fluoropyridin-3-yl)-1,3-benzothiazol-2-yl]-2-methanesulfonyl-N-(2-sulfamoylethyl)acetamide] are 0.7 nM and 13 nM.
`Cn1nccc1-c1ccc2sc(C(C(=O)NCCS(N)(=O)=O)S(C)(=O)=O)nc2c1` (centres unmarked) [Example B384, 2-methanesulfonyl-2-[5-(1-methyl-1H-pyrazol-5-yl)-1,3-benzothiazol-2-yl]-N-(2-sulfamoylethyl)a-cetamide]: the IC50 against Endothelial lipase (EL) is 8.2 nM; at hepatic lipase (HL), 828 nM.
On the same counts, the results for `CS(=O)(=O)C(C(=O)NCCS(N)(=O)=O)c1nc2cc(-c3ccc(F)nc3F)ccc2s1` (centres unmarked) [Example B385, 2-[5-(2,6-difluoropyridin-3-yl)-1,3-benzothiazol-2-yl]-2-methanesulfonyl-N-(2-sulfamoylethyl)a-cetamide] are 3.5 nM and 20.5 nM.
On the same counts, the results for `CC(C)(C)OC(=O)c1ccc(-c2ccc3nc(C(C(=O)N[C@@H]4CCNC4=O)S(=O)(=O)Cc4ccccc4)sc3c2)cc1` (stereo partly drawn) [Example B386, tert-butyl 4-[2-({[(3R)-2-oxopyrrolidin-3-yl]carbamoyl}(phenyl-methanesulfonyl)methyl)-1,3-benzothiazol-6-yl]benzoate] are 17.1 nM and 14.3 nM.
On the same counts, the results for `CC(C)(O)Cn1ccc(-c2ccc3sc(C(C(=O)NCCS(N)(=O)=O)S(C)(=O)=O)nc3c2)cc1=O` (centres unmarked) [Example B389, 2-{5-[1-(2-hydroxy-2-methylpropyl)-2-oxo-1,2-dihydropyridin-4-yl]-1,3-benzothiazol-2-yl}-2-methanesulfonyl-N-(2-sulfamoylethyl)acetamide] are 2 nM and 6300 nM.
Turning to `CC(C)(O)Cn1cc(-c2ccc3sc(C(C(=O)NCCS(N)(=O)=O)S(C)(=O)=O)nc3c2)ccc1=O` (centres unmarked) [Example B390, 2-{5-[1-(2-hydroxy-2-methylpropyl)-6-oxo-1,6-dihydropyridin-3-yl]-1,3-benzothiazol-2-yl}-2-methanesulfonyl-N-(2-sulfamoylethyl)acetamide], the values for the IC50 at Endothelial lipase (EL) and on hepatic lipase (HL) were 3.5 nM and 10000 nM, respectively.
Turning to `CC(C)(C)OC(=O)c1ccc2sc(C(C(=O)NCCS(N)(=O)=O)S(C)(=O)=O)nc2c1` (centres unmarked) [Example B391, tert-Butyl 2-(1-(methylsulfonyl)-2-oxo-2-((2-sulfamoylethyl)amino)ethyl)-1,3-benzothiazole-5-carboxylate], the IC50 at Endothelial lipase (EL) (setting [1]) amounted to 25 nM; at hepatic lipase (HL) (setting [2]) it was 53.4 nM.
Take `CS(=O)(=O)C(C(=O)NCCS(N)(=O)=O)c1nc2cc(C(=O)O)ccc2s1` (centres unmarked) [Example B392, 2-(1-(Methylsulfonyl)-2-oxo-2-((2-sulfamoylethyl)amino)ethyl)benzo[d]thiazole-5-carboxylic acid]: the figures for the IC50 at Endothelial lipase (EL) (setting [1]) and at hepatic lipase (HL) (setting [2]) were 3.1 nM and 92.7 nM, respectively.
Regarding `CS(=O)(=O)C(C(=O)NCCS(N)(=O)=O)c1nc2cc(C(=O)N3CC(F)(F)C3)ccc2s1` (centres unmarked) [Example B393, 2-[5-(3,3-difluoroazetidine-1-carbonyl)-1,3-benzothiazol-2-yl]-2-methanesulfonyl-N-(2-sulfamoylethyl)acetamide], the IC50 was determined as 50.3 nM against Endothelial lipase (EL) and 5750 nM against hepatic lipase (HL).
Consider `CS(=O)(=O)C(C(=O)NCCS(N)(=O)=O)c1nc2cc(C(=O)NCCc3ccc(F)cc3)ccc2s1` (centres unmarked) [Example B394, N-[2-(4-fluorophenyl)ethyl]-2-{methanesulfonyl[(2-sulfa-moylethyl)carbamoyl]meth-yl}-1,3-benzothiazole-5-carboxamide], for which the IC50 amounted to 37.4 nM at Endothelial lipase (EL) and 1600 nM against hepatic lipase (HL).
Turning to `CS(=O)(=O)C(C(=O)NCCS(N)(=O)=O)c1nc2ccc(-c3nnc(-c4ccc(F)cc4)o3)cc2s1` (centres unmarked) [Example B395, 2-(6-(5-(4-Fluorophenyl)-1,3,4-oxadiazol-2-yl)benzo[d]thiazol-2-yl)-2-(methylsulfonyl)-N-(2-sulfamoylethyl)acetamide], the values for the IC50 on Endothelial lipase (EL) (setting [1]) and at hepatic lipase (HL) (setting [2]) were 148 nM and 275 nM, respectively.
On the same counts, the results for `CCNC(=O)CNC(=O)C(c1nc2ccc(-c3ccc(F)nc3)cc2s1)S(=O)(=O)CCOC` (centres unmarked) [Example B397, N-[(ethylcarbamoyl)methyl]-2-[6-(6-fluoropyridin-3-yl)-1,3-benzothiazol-2-yl]-2-(2-methoxyethanesulfonyl)acetamide] are 109 nM and 460 nM.

Values taken from US8987314B2, “Amide, urea or sulfone amide linked benzothiazole inhibitors of endothelial lipase” (Bristol-Myers Squibb Company, priority 2012, dated 2015).
